Data set [1] is described as follows: Acute toxicity test (LD50). The note with it: mouse, in vivo, male mice.
In data set [2] the test system is NF-κB. Nature of the data set: Gel shift assay: inhibition of NF-κB binding activation in U1 cells. The class given is cell-based, human. The note with it: for inhibition at 0.1 µg/mL / inhibition at 1 µg/mL: Homo sapiens. The method, then:
Inhibition Action on NF-κB Binding Activation
In order to examine the action of a test compound cepharanthine to inhibit NF-κB binding activation, U1 [a cell strain derived from HIV-1 (HIV type 1) latent infection human monocyte] cells were stimulated or not stimulated with phorbol 12-myristate 13-acetate (PMA) in the presence or absence of the test compound, and the following assay was carried out using a nucleoprotein extract obtained from the resulting cells.
Gel shift assay was carried out using an NF-κB probe of HIV-1. A double-stranded DNA fragment of an NF-κB site-like sequence, 5'-AGTTGAGGGGACTTTCCCAGGC-3' from the transcription initiation point, was used as the NF-κB probe of HIV-1. The 5'-terminus of the probe was radiation-labeled with ^32 p in the usual way using [γ-^32 P]ATP and polynucleotide kinase. […] At the same time, a sample in which a large quantity of non-labeled probe was added to the reaction solution was prepared and the same reaction was carried out as a competitive assay. Thereafter, the ^32 P-labeled NF-κB probe was added thereto to carry out 20 minutes of binding reaction at room temperature. After the reaction, 4% unmodified polyacrylamide gel electrophoresis was carried out in order to separate the DNA-NF-κB complex from free oligonucleotide. The gel was subjected to autoradiography, and NF-κB in the nucleoprotein extract was determined by an image analyzer (BIO-RAD, Model GS-700 Imaging Densitometer).
The action of the test compound to inhibit activation of NF-κB binding by PMA stimulation of U1 cells (inhibition ratio, %) is shown in Table 1.
V3: Cepharanthine control; reaction (2.5 hours) of U1 cells in the
presence of 0.1 μg/ml of cepharanthine
V4: Cepharanthine control; reaction (2.5 hours) of U1 cells in the
presence of 1 μg/ml of cepharanthine
V6: Reaction (2 hours) of U1 cells in the presence of 0.1 μg/ml of
cepharanthine + stimulation (0.5 hour) with 10 ng/ml of PMA
V7: Reaction (2 hours) of U1 cells in the presence of 1 μg/ml of
**: V6, V7, V8 and V9 vs. V5
On the technique in general: Mobility shift assays separate free from complexed probe on a gel.

For data set [3], the system named is HIV-1 LTR. Nature of the data set: HIV-1 LTR CAT assay: inhibition of HIV-1 LTR transcription activity in HeLa cells. It counts as cell-based. The note with it: 48 hours; for % Inhibition: vs. V3 (PMA). The method, then:
Inhibition action on HIV-1 LTR transcription activity
In order to examine effect of a test compound cepharanthine on the HIV-1 transcription activity, CAT assay was carried out by the following method.
A plasmid in which chloramphenicol acetyltransferase (CAT) gene has been linked to the downstream of HIV-1 LTR gene was introduced by lipofection into HeLa cells adjusted to a density of 1×10^6 cells, and the resulting cells were cultured in the presence or absence of the test compound and phorbol 12-myristate 13-acetate (PMA). After 48 hours of the culturing, the cells were collected and washed to prepare a cell extract using a freeze-thawing method. The thus prepared cell extract was allowed to react with acetyl CoA and [^14 C]-labeled chloramphenicol (CM), and the thus formed acetyl[^14 C]CM was separated by a thin layer chromatography, subjected to autoradiography and then […] measured using an image analyzer (BIO-RAD, Model GS-700 Imaging Densitometer).
V4: HeLa cells were cultured in the presence of cepharanthine (0.1
μg/ml) + PMA (10 ng/ml)
V5: HeLa cells were cultured in the presence of cepharanthine (1 μg/ml

Setting [4] is: 0.1 μg/ml, 2 hours + PMA 10 ng/ml, 0.5 hour.
Setting [5] is: 1 μg/ml, 2 hours + PMA 10 ng/ml, 0.5 hour.

Six compounds from patent publication US6123943A, “NF-KB activity inhibitor” (Kaken Shoyaku Co., Ltd., priority 1997, dated 2000) can be followed below.

`COc1cc2c3c(c1OC)Oc1ccc(cc1)C[C@@H]1c4c(cc(OC)c(OC)c4Oc4ccc(cc4)C[C@H]3N(C)CC2)CCN1C` [cycleanine] returned a 50% lethal dose (LD50) in data set [1] (intravenous) of 62.5 mg/kg.
Turning to `COc1ccc2cc1Oc1ccc(cc1)C[C@H]1c3cc(c(OC)cc3CCN1C)Oc1c(OC)c(OC)cc3c1[C@@H](C2)N(C)CC3` [isotetrandrine], the LD50 in data set [1] (intravenous) was 32.5 mg/kg.
For the compound `COc1cc2c3cc1Oc1c(OC)c(OC)cc4c1[C@@H](Cc1ccc(O)c(c1)Oc1ccc(cc1)C[C@@H]3N(C)CC2)N(C)CC4` [berbamine], the LD50 in data set [1] (intravenous) was 18.8 mg/kg.
Take `COc1ccc2cc1Oc1ccc(cc1)C[C@H]1c3c(cc(OC)c(O)c3Oc3cc4c(cc3OC)CCN(C)[C@@H]4C2)CCN1C` [homoaromoline]: in data set [1] (intravenous), the LD50 turned out to be 42.4 mg/kg.
Still for that read-out and setting: to `COc1cc2c3cc1Oc1c4c(cc5c1[C@H](Cc1ccc(cc1)Oc1cc(ccc1O)C[C@H]3N(C)CC2)N(C)CC5)OCO4` [cepharanoline] belongs 34.3 mg/kg.
Consider `COc1ccc2cc1Oc1ccc(cc1)C[C@H]1c3c(cc4c(c3Oc3cc5c(cc3OC)CCN(C)[C@@H]5C2)OCO4)CCN1C` [cepharanthine], for which the Area in data set [2] (setting [4]) was 70.45 mm × mm; in data set [2] (0.1 μg/ml, 2.5 hours, no PMA), 70.53 mm × mm; in data set [2] (setting [5]), 50.63 mm × mm; in data set [2] (1 μg/ml, 2.5 hours, no PMA), 69.15 mm × mm; in data set [3] (0.1 μg/ml + PMA (10 ng/ml)), 54.31 mm × mm; in data set [3] (1 μg/ml + PMA (10 ng/ml)), 41.00 mm × mm. The “Average (OD)” value in data set [2] (setting [4]) is 0.491 OD; in data set [2] (0.1 μg/ml, 2.5 hours, no PMA), 0.447 OD; in data set [2] (setting [5]) it was 0.490 OD; in data set [2] (1 μg/ml, 2.5 hours, no PMA), 0.442 OD; in data set [3] (0.1 μg/ml + PMA (10 ng/ml)) it was 0.892 OD; in data set [3] (1 μg/ml + PMA (10 ng/ml)), 0.867 OD. Besides, the Labeled amount in data set [2] (setting [4]) is listed as 34.59 OD × mm × mm; in data set [2] (0.1 μg/ml, 2.5 hours, no PMA), 31.53 OD × mm × mm; in data set [2] (setting [5]), 24.81 OD × mm × mm; in data set [2] (1 μg/ml, 2.5 hours, no PMA), 30.56 OD × mm × mm; in data set [3] (0.1 μg/ml + PMA (10 ng/ml)), 48.44 OD × mm × mm; in data set [3] (1 μg/ml + PMA (10 ng/ml)), 35.55 OD × mm × mm. Besides, the inhibition at 0.1 µg/mL in data set [2] (0.1 μg/ml, 2 hours + PMA 10 ng/ml, 0.5 hour, vs. V5 (PMA)) was 24.7%; in data set [2] (0.1 μg/ml, 2.5 hours, no PMA, vs. V2 (untreated U1 cells)) it was 10.9%. The inhibition at 1 µg/mL is 46% in data set [2] (1 μg/ml, 2 hours + PMA 10 ng/ml, 0.5 hour, vs. V5 (PMA)) and 13.7% in data set [2] (1 μg/ml, 2.5 hours, no PMA, vs. V2 (untreated U1 cells)). In addition, the “% Inhibition” value is reported as 33.1% in data set [3] (0.1 μg/ml + PMA (10 ng/ml)) and 50.9% in data set [3] (1 μg/ml + PMA (10 ng/ml)). Further, the median lethal dose (LD50) came out at 47 mg/kg in data set [1] (intravenous) and 3410 mg/kg in data set [1] (oral).

By LD50 is commonly meant the dose at which mortality reaches 50%. Higher therefore signals a less toxic substance. In general, inhibition refers to the change of the read-out against control, counted positive when it falls. As a reminder, the % Inhibition is the change of the read-out against control, counted positive when it falls.
